In US20240252586A1, “ENGINEERED ANTIMICROBIAL PEPTIDES AND USAGE THEREOF” (priority 2021, published 2024):
“And” between values parts separate entries of the source, which are not always exact repeats. Identical values can stand only once. Like-named read-outs stand apart in the source and are kept apart here. Where no end group is shown, it is not given here.

Legend:
E. Coli ATCC BAA-2469 = test system: E. Coli ATCC BAA-2469
Protocol: (§1) SEQ ID NO: 1 stocks were made at 5.12 mg/mL in water adjusted to pH of 5.0 with 1% glacial acetic acid.
(§2) The test organisms (Table 7) consisted of clinical isolates from the Micromyx (MMX) repository, a reference isolate from the American Type Culture Collection (ATCC, Manassas, VA) and the Centers for Disease Control (CDC, Atlanta GA). Upon initial receipt, the isolates were streaked under suitable conditions onto agar medium appropriate to each organism. The organisms were incubated for 18-24 hr at 35° C. in ambient atmosphere. Colonies harvested from these growth plates were resuspended in the appropriate medium containing a cryoprotectant. Aliquots of each suspension were then stored frozen at −80° C. Prior to testing, all organisms were cultured onto trypticase soy agar containing 5% sheep blood. The agar plates were incubated as described above.
(§3) The Test media used for MIC and FIC were testing were cation-adjusted Mueller-Hinton broth (CAMHB) and Roswell Park Memorial Institute (RPMI-1640), buffered with 3-(N-morpholino)propanesulfonic acid (MOPS). Each test media was supplemented with 0.002% Tween-80 (P-80) prior to testing.
(§4) MIC assay plates were prepared for broth microdilution in accordance with guidelines from the Clinical and Laboratory Standards Institute (CLSI); automated liquid handlers (Biomek 3000 and Biomek FX) and multi-channel pipettes were used to conduct serial dilutions and liquid transfers. MIC assay plates were prepared using a 96-well, deep-well microdilution plate that mimicked the layout of the daughter plates.
(§5) For the mother plate, wells across the standard 96-well microdilution plate were filled with 150 μL of sterile saline 0.002% P-80 in columns 2 through 12. […] The Biomek 300 was used to make eleven 2-fold serial dilutions horizontally across each row of the plate from columns 2 through 11. The Biomek FX was then used to transfer 5 μL of the SEQ ID NO: 1 and saline 0.002% P-80 to the daughter plates.
(§6) A standardized inoculum of each organism was prepared per CLSI methods. Suspensions were prepared to equal a 0.5 McFarland standard followed by a 1:10 dilution into test medium. The inocula were dispensed into sterile reservoirs divided by length and the Biomek 3000 was used to inoculate the plates. Daughter plates were placed on the Biomek 3000 work surface in reverse orientation so that inoculation took place from low to high drug concentration. The Biomek 3000 delivered 10 μL of the diluted suspension into each well. These inoculations yielded a final cell concentration in the daughter plates of approximately 5×10^5 CFU/mL in each well. Plates were incubated at 35° C. for 16-20 hr. The microplates were viewed from the bottom using a plate viewer and the MIC was recorded as the lowest concentration of drug that inhibited visible growth of the organism.

P. aeruginosa ATCC 27853 = test system: P. aeruginosa ATCC 27853
Protocol: as §1, §2, §3, §4, §5, §6

E. Coli CDC 0451 = test system: E. Coli CDC 0451
Protocol: as §1, §2, §3, §4, §5, §6

E. Coli ATCC 25922 = test system: E. Coli ATCC 25922
Protocol: as §1, §2, §3, §4, §5, §6

P. aeruginosa CDC 0509 = test system: P. aeruginosa CDC 0509
Protocol: as §1, §2, §3, §4, §5, §6

S. aureus NRS 382 = test system: S. aureus NRS 382
Protocol: as §1, §2, §3, §4, §5, §6

S. epidermidis MMX 8655 = test system: S. epidermidis MMX 8655
Protocol: as §1, §2, §3, §4, §5, §6

S. epidermidis MMX 5129 = test system: S. epidermidis MMX 5129
Protocol: as §1, §2, §3, §4, §5, §6

S. aureus ATCC 29213 = test system: S. aureus ATCC 29213
Protocol: as §1, §2, §3, §4, §5, §6

S. epidermidis MMX 3628 = test system: S. epidermidis MMX 3628
Protocol: as §1, §2, §3, §4, §5, §6

P. aeruginosa CDC 0515 = test system: P. aeruginosa CDC 0515
Protocol: as §1, §2, §3, §4, §5, §6

S. aureus NRS 384 = test system: S. aureus NRS 384
Protocol: as §1, §2, §3, §4, §5, §6

P. aeruginosa = experiment: Broth microdilution MIC, PJI isolates (Example 1); assay type: cell-based, Pseudomonas aeruginosa; details: RPMI; N = 20
Protocol: Imipenem, levofloxacin, tigecycline, linezolid, vancomycin, oxacillin, ceftazidime, colistin, and amikacin were tested as comparators. Testing was conducted in accordance with guidelines from the Clinical and Laboratory Standards Institute (CLSI; M7 and M100). Test organisms comprised reference strains from the American Type Culture Collection, the Centers for Disease Control Antibiotic Reference Bank and clinical isolates from the Micromyx repository.

RRWVRRVRRVWRRVVRVVRRWVRR [SEQ ID NO: 1]
MIC (E. Coli ATCC BAA-2469; CAMHB): 4 µg/mL
MIC (E. Coli ATCC BAA-2469; RPMI): 0.5 µg/mL
MIC (P. aeruginosa ATCC 27853; CAMHB): 8 µg/mL
MIC (P. aeruginosa ATCC 27853; RPMI): 2 µg/mL
MIC (E. Coli CDC 0451; CAMHB): 1 µg/mL and 2 µg/mL
MIC (E. Coli CDC 0451; RPMI): 0.5 µg/mL
MIC (E. Coli ATCC 25922; CAMHB): 4 µg/mL
MIC (E. Coli ATCC 25922; RPMI): 0.5 µg/mL
MIC (P. aeruginosa CDC 0509; CAMHB): 8 µg/mL
MIC (P. aeruginosa CDC 0509; RPMI): 4 µg/mL
MIC (P. aeruginosa CDC 0509; stated in FIG. 5 legends (time-kill), printed P. Aeruginosa CDC 0451): 16 µg/mL
MIC (S. aureus NRS 382; RPMI): 0.5 µg/mL
MIC (S. aureus NRS 382; stated in FIG. 2 legends (time-kill), printed S. aureus NRS 382): 8 µg/mL
MIC (S. epidermidis MMX 8655; CAMHB): 0.5 µg/mL
MIC (S. epidermidis MMX 8655; RPMI): 0.12 µg/mL
MIC (S. epidermidis MMX 8655; stated in FIG. 3 legends (time-kill)): 1 µg/mL
MIC (S. epidermidis MMX 5129; CAMHB): 1 µg/mL
MIC (S. epidermidis MMX 5129; RPMI): 0.12 µg/mL
MIC (S. aureus ATCC 29213; CAMHB): 4 µg/mL
MIC (S. aureus ATCC 29213; RPMI): 0.5 µg/mL
MIC (S. epidermidis MMX 3628; CAMHB): 0.25 µg/mL
MIC (S. epidermidis MMX 3628; RPMI): 0.12 µg/mL
MIC (P. aeruginosa CDC 0515; CAMHB): 8 µg/mL
MIC (P. aeruginosa CDC 0515; RPMI): 1 µg/mL
MIC (S. aureus NRS 384; CAMHB): 4 µg/mL
MIC (S. aureus NRS 384; RPMI): 0.5 µg/mL
MIC50 (P. aeruginosa): 1 µg/mL
MIC90 (P. aeruginosa): 1 µg/mL
